In patent publication US20250170130A1, “MODULATORS OF MYC FAMILY PROTO-ONCOGENE PROTEIN” (Nalo Therapeutics, priority 2022, published 2025):

Experiments:
MycN = biological target: T1, MycN (Homo sapiens, UniProt P04198); assay: Degradation of MycN protein in SK-N-BE(2) cells, JESS/Western blot of lysates; format: cell-based; details: SKNBE2, 24 h, SKNBE2 cells, 24 h; for Dmax at 0.5 µM: read-out: % Degradation of MycN (SKNBE2) 24 h, 0.5 μM; for Dmax at 1 µM: read-out: % Degradation of MycN (SKNBE2) 24 h, 1 μM; for Dmax at 3 µM: read-out: % Degradation of MycN (SKNBE2) 24 h, 3 μM; for Dmax at 6 µM: read-out: % Degradation of MycN (SKNBE2) 24 h, 6 μM
T1 construct: endogenous in cells; host or cells: SK-N-BE(2)
T1 sequence (P04198 1-464): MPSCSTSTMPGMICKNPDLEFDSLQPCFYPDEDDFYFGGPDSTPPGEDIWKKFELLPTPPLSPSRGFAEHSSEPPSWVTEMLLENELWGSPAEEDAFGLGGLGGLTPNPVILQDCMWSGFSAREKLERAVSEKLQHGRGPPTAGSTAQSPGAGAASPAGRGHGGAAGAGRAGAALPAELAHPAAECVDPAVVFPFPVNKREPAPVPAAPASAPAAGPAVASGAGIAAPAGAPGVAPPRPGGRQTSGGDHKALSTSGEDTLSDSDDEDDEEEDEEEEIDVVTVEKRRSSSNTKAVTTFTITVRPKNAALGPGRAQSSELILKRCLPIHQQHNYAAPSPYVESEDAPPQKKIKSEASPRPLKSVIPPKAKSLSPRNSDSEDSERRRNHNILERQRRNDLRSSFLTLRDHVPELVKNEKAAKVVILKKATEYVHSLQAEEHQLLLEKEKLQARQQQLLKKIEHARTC
Outline: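 SK-N-BE(2) adherent cells (5E5 per well of a 6 well dish) were grown 24 hrs, then exposed to compounds diluted 1 in 20 in media, with DMSO controls, for 24 hrs. Cells were scraped, pelleted, PBS washed and lysed in RIPA buffer cocktail; after BCA protein quantitation, n-myc was detected by chemiluminescence on JESS/Western blot with tubulin and GAPDH loading controls read in the near infra red channel.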

MycC = biological target: T2, MycC (Homo sapiens, UniProt P01106); assay: Degradation of MycC protein in L363 cells, JESS/Western blot of lysates; format: cell-based; details: L-363, 24 h, L-363 cells, 24 h; for Dmax at 0.5 µM: read-out: % Degradation of MycC (L-363) 24 h, 0.5 μM; for Dmax at 1 µM: read-out: % Degradation of MycC (L-363) 24 h, 1 μM; for Dmax at 3 µM: read-out: % Degradation of MycC (L-363) 24 h, 3 μM; for Dmax at 6 µM: read-out: % Degradation of MycC (L-363) 24 h, 6 μM
T2 construct: endogenous in cells; host or cells: L363
Outline: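 L363 suspension cells were seeded at 1E6 cells per well and exposed to compound (stock 10 mM in DMSO) for 24 hrs. Cells were collected, spun down, rinsed with PBS, lysed in RIPA buffer cocktail on ice, clarified and kept at −80 degrees. Lysate protein was quantified by BCA, and c-myc was measured on JESS by chemiluminescence with tubulin and GAPDH loading controls in the NIR channel.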

T2 sequence (P01106 whole entry): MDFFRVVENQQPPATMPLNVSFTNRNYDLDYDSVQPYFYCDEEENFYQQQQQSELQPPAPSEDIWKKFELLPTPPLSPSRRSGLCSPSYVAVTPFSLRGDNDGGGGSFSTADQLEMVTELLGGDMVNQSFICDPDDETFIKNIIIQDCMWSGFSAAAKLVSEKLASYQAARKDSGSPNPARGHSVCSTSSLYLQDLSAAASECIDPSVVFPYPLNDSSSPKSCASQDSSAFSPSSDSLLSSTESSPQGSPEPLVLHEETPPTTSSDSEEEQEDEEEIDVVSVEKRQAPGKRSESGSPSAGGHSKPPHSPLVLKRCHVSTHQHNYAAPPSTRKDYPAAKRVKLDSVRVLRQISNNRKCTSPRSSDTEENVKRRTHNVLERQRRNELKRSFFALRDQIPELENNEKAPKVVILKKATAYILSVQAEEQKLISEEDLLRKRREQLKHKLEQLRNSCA

| Compound | Dmax at 0.5 µM (MycN) | Dmax at 1 µM (MycN) | Dmax at 3 µM (MycN) | Dmax at 6 µM (MycN) | Dmax at 0.5 µM (MycC) | Dmax at 1 µM (MycC) | Dmax at 3 µM (MycC) | Dmax at 6 µM (MycC) |
| --- | --- | --- | --- | --- | --- | --- | --- | --- |
| c1cc(Nc2cc(C3CCCC3)[nH]n2)nc(N2CC3(CCCNC3)C2)n1 [Compound 106, N-(5-Cyclopentyl-1H-pyrazol-3-yl)-2-(2,8-diazaspiro[3.5]nonan-2-yl)pyrimidin-4-amine] | < 20% | < 20% | 20 to 49% | 20 to 49% | < 20% | < 20% | < 20% | < 20% |
| CN1CC2(CCCN(c3nccc(Nc4cc(C5CCCC5)[nH]n4)n3)C2)C1 [Compound 107, N-(5-cyclopentyl-1H-pyrazol-3-yl)-2-(2-methyl-2,6-diazaspiro[3.5]nonan-6-yl)pyrimidin-4-amine] | < 20% | 20 to 49% | 20 to 49% | 20 to 49% |  |  | < 20% | < 20% |
| NC[C@H]1CCCN(c2nccc(Nc3cc(C4CCCC4)[nH]n3)n2)C1 [Compound 108, 2-[(3R)-3-(Aminomethyl)-1-piperidyl]-N-(5-cyclopentyl-1H-pyrazol-3-yl)pyrimidin-4-amine] | < 20% | 50 to 79% | 50 to 79% | 80 to 100% |  |  | 80 to 100% | 80 to 100% |
| NC[C@@H]1CCCN(c2nccc(Nc3cc(C4CCCC4)[nH]n3)n2)C1 [Compound 109, 2-[(3S)-3-(Aminomethyl)-1-piperidyl]-N-(5-cyclopentyl-1H-pyrazol-3-yl)pyrimidin-4-amine] | 20 to 49% | 50 to 79% | 50 to 79% | 80 to 100% | < 20% | < 20% | 80 to 100% | 80 to 100% |
| NC[C@@H]1CCN(c2nccc(Nc3cc(C4CCCC4)[nH]n3)n2)C1 [Compound 110, 2-[(3S)-3-(Aminomethyl)pyrrolidin-1-yl]-N-(5-cyclopentyl-1H-pyrazol-3-yl)pyrimidin-4-amine] | 20 to 49% | 50 to 79% | 50 to 79% | 80 to 100% | < 20% |  | 80 to 100% | 80 to 100% |
| CN(C)C[C@H]1CCN(c2nccc(Nc3cc(C4CCCC4)[nH]n3)n2)C1 [Compound 111, N-(5-Cyclopentyl-1H-pyrazol-3-yl)-2-[(3R)-3-[(dimethylamino)methyl]pyrrolidin-1-yl]pyrimidin-4-amine] | < 20% | < 20% | < 20% | 50 to 79% | < 20% | < 20% | < 20% | < 20% |
| CNCC12CC(C1)N(c1nccc(Nc3cc(C4CCCC4)ncn3)n1)C2 [Compound 112, N-(6-Cyclopentylpyrimidin-4-yl)-2-[4-(methylaminomethyl)-2-azabicyclo[2.1.1]hexan-2-yl]pyrimidin-4-amine] |  |  | 50 to 79% | 80 to 100% |  |  |  | 50 to 79% |
| NCC12CCC(C1)N(c1nccc(Nc3cc(C4CC4)[nH]n3)n1)C2 (centres unmarked) [Compound 113, 2-[4-(Aminomethyl)-2-azabicyclo[2.2.1]heptan-2-yl]-N-(5-cyclopropyl-1H-pyrazol-3-yl)pyrimidin-4-amine] | 80 to 100% | 80 to 100% | 80 to 100% | 80 to 100% | 80 to 100% | 80 to 100% | 80 to 100% | 80 to 100% |
| CNCC12CCC(C1)N(c1nccc(Nc3cc(C4CCCC4)[nH]n3)n1)C2 (centres unmarked) [Compound 114] | 80 to 100% | 80 to 100% | 80 to 100% | 80 to 100% | 80 to 100% | 80 to 100% | 80 to 100% | 80 to 100% |
